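Method: 48-hour compound exposure of cells in 96-well plates, five concentrations, linear interpolation of endpoints. GI50 = concentration required for 50% inhibition of growth.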 Active and inactive are the calls of the source. Rule as the data show it: active = GI50 up to about 1.1 µM and inactive = higher.
Key:
Assay in all cases: DTP human tumour cell line panel, 48 h
786-0 = tested on: 786-0
A498 = tested on: A498
A549 = tested on: A549
ACHN = tested on: ACHN
BT-549 = tested on: BT-549
CAKI-1 = tested on: CAKI-1
CCRF-CEM = tested on: CCRF-CEM
COLO 205 = tested on: COLO 205
DU-145 = tested on: DU-145
EKVX = tested on: EKVX
HCT-116 = tested on: HCT-116
HCT-15 = tested on: HCT-15
HL-60 = tested on: HL-60
HOP-62 = tested on: HOP-62
HOP-92 = tested on: HOP-92
HT-29 = tested on: HT-29
Hs-578T = tested on: Hs-578T
IGROV-1 = tested on: IGROV-1
K562 = tested on: K562
KM12 = tested on: KM12
LOX IMVI = tested on: LOX IMVI
M14 = tested on: M14
MCF7 = tested on: MCF7
MDA-MB-231 = tested on: MDA-MB-231
MDA-MB-435 = tested on: MDA-MB-435
MDA-N = tested on: MDA-N
MOLT-4 = tested on: MOLT-4
Malme-3M = tested on: Malme-3M
NCI-H226 = tested on: NCI-H226
NCI-H23 = tested on: NCI-H23
NCI-H460 = tested on: NCI-H460
NCI-H522 = tested on: NCI-H522
NCI/ADR-RES = tested on: NCI/ADR-RES
OVCAR-3 = tested on: OVCAR-3
OVCAR-4 = tested on: OVCAR-4
OVCAR-5 = tested on: OVCAR-5
OVCAR-8 = tested on: OVCAR-8
PC-3 = tested on: PC-3
RPMI-8226 = tested on: RPMI-8226
RXF 393 = tested on: RXF 393
SF-268 = tested on: SF-268
SF-295 = tested on: SF-295
SF-539 = tested on: SF-539
SK-MEL-28 = tested on: SK-MEL-28
SK-MEL-2 = tested on: SK-MEL-2
SK-MEL-5 = tested on: SK-MEL-5
SK-OV-3 = tested on: SK-OV-3
SN12C = tested on: SN12C
SNB-19 = tested on: SNB-19
SR = tested on: SR
SW-620 = tested on: SW-620
T47D = tested on: T47D
TK-10 = tested on: TK-10
U-251 = tested on: U-251
UACC-257 = tested on: UACC-257
UACC-62 = tested on: UACC-62
UO-31 = tested on: UO-31

SMILES: NNS(=O)(=O)c1cc(C(=O)O)cc(C(=O)O)c1
- GI50 (786-0): > 100 µM (inactive)
- GI50 (A498): > 100 µM (inactive)
- GI50 (A549): > 100 µM (inactive)
- GI50 (ACHN): > 100 µM (inactive)
- GI50 (BT-549): > 100 µM (inactive)
- GI50 (CAKI-1): > 100 µM (inactive)
- GI50 (CCRF-CEM): 28.5 µM (inactive)
- GI50 (COLO 205): > 100 µM (inactive)
- GI50 (DU-145): > 100 µM (inactive)
- GI50 (EKVX): > 100 µM (inactive)
- GI50 (HCT-116): > 100 µM (inactive)
- GI50 (HCT-15): > 100 µM
- GI50 (HL-60): > 100 µM (inactive)
- GI50 (HOP-62): > 100 µM (inactive)
- GI50 (HOP-92): > 100 µM (inactive)
- GI50 (HT-29): > 100 µM (inactive)
- GI50 (Hs-578T): 1.09 µM (active)
- GI50 (IGROV-1): > 100 µM (inactive)
- GI50 (K562): > 100 µM (inactive)
- GI50 (KM12): > 100 µM (inactive)
- GI50 (LOX IMVI): > 100 µM (inactive)
- GI50 (M14): > 100 µM (inactive)
- GI50 (MCF7): > 100 µM (inactive)
- GI50 (MDA-MB-231): > 100 µM (inactive)
- GI50 (MDA-MB-435): > 100 µM (inactive)
- GI50 (MDA-N): > 100 µM (inactive)
- GI50 (MOLT-4): > 100 µM (inactive)
- GI50 (Malme-3M): > 100 µM (inactive)
- GI50 (NCI-H226): > 100 µM (inactive)
- GI50 (NCI-H23): > 100 µM (inactive)
- GI50 (NCI-H460): > 100 µM (inactive)
- GI50 (NCI-H522): > 100 µM (inactive)
- GI50 (NCI/ADR-RES): > 100 µM (inactive)
- GI50 (OVCAR-3): > 100 µM (inactive)
- GI50 (OVCAR-4): > 100 µM (inactive)
- GI50 (OVCAR-5): > 100 µM (inactive)
- GI50 (OVCAR-8): > 100 µM (inactive)
- GI50 (PC-3): > 100 µM (inactive)
- GI50 (RPMI-8226): > 100 µM (inactive)
- GI50 (RXF 393): > 100 µM (inactive)
- GI50 (SF-268): > 100 µM (inactive)
- GI50 (SF-295): > 100 µM (inactive)
- GI50 (SF-539): > 100 µM (inactive)
- GI50 (SK-MEL-28): > 100 µM (inactive)
- GI50 (SK-MEL-2): > 100 µM (inactive)
- GI50 (SK-MEL-5): > 100 µM (inactive)
- GI50 (SK-OV-3): > 100 µM (inactive)
- GI50 (SN12C): > 100 µM (inactive)
- GI50 (SNB-19): > 100 µM (inactive)
- GI50 (SR): > 100 µM (inactive)
- GI50 (SW-620): > 100 µM (inactive)
- GI50 (T47D): > 100 µM (inactive)
- GI50 (TK-10): > 100 µM (inactive)
- GI50 (U-251): > 100 µM (inactive)
- GI50 (UACC-257): > 100 µM (inactive)
- GI50 (UACC-62): > 100 µM (inactive)
- GI50 (UO-31): > 100 µM (inactive)

— ChEMBL document CHEMBL1201862, “PubChem BioAssay data set” (2004)
